From publication PMC11585928, “Screening the Global Health Priority Box against Plasmodium berghei liver stage parasites using an inexpensive luciferase detection protocol” (Malaria Journal, 2024)

What was measured:
[1] = tested on: luciferase-expressing P. berghei liver stage schizonts; test: P. berghei liver stage dose-response assay in HepG2, FLAR luciferase endpoint (legacy anti-malarials); type: cell-based; settings: Plasmodium berghei, HepG2, 44 h, read-out: FLAR (pEC50 ± SD) (converted)
Protocol: All stock reagents were stored at 4 °C, except D-luciferin, ATP, and DTT which were aliquoted and stored at − 20 °C. Tricine, MgSO4, and MgCO3 stocks were all adjusted to have a pH of 7.8.
To test the titration of sporozoite in dose–response format with MMV390048, 20 µL of a 25 sporozoite/μL solution in HepG2 media was added to columns 1–8 of 384-well plates (inoculum of 500 sporozoites/well), 20 μL of 50 sporozoites/μL was added into columns 9–16 (inoculum of 1000 sporozoites/well), and 20 μL of 100 sporozoites/μL was added into columns 17–24 (inoculum of 2000 sporozoites/well). To test legacy anti-malarials, two independent experiments were performed for each endpoint (FLAR or HCI), each with an independent production run of P. berghei sporozoites. […] Infected plates were spun for 5 min at 200 RCF and kept for 3 h at 37 °C and 5% CO2 prior to compound treatment.
(§1) Compound treatment was performed as previously described. Dose–response source plates containing 5 μL of 1000 × test compounds in a serial dilution in DMSO were prepared in low volume 384-well plates using a Biomek 4000 (Beckman Coulter). Assay plates were treated by transferring 40 nL from screening or dose–response source plates using a pin tool (V&P Scientific) affixed to a Biomek NXp, resulting in a final test concentration of 1 × in media.
After 44 h, dose–response plates designated for the FLAR endpoint underwent the freeze/thaw lysis method before detection with 1 × FLAR completed with 1 × D-luciferin and ATP endpoint described above. […] Following fixation, the plate was washed twice by adding and then dumping 20 µL of PBS/well. […] Plates were imaged on an ImageXpress Micro Confocal high content system (Molecular Devices). Raw values (either parasite growth area for HCI or Relative Light Units (RLU) for FLAR) were normalized to the positive (MMV390048) or negative (DMSO) controls using the equation: %Inhibition=100×RawData-AverageNegativeControl/AveragePositiveControl-AverageNegativeControl and curve fitting was performed with CDD Vault using the Levenberg–Marquardt algorithm. Potency data from all plates were collected, visualized, and analysed using GraphPad Prism (Version 10.0.3). Potency values for legacy anti-malarials obtained from our FLAR endpoint were compared to those previously reported from a 1536-well plate format using a Bright-Glo™ luciferase detection protocol.

[2] = tested on: P. berghei liver stage schizonts; test: microbe, parasite or virus in culture; type: cell-based; settings: Plasmodium berghei, HepG2, 44 h, read-out: High Content Imaging (pEC50 ± SD) (converted)
Protocol: HepG2 seeding (1.75 × 10^4 cells/well), salivary gland dissection, sporozoite quantification, and sporozoite dilution were performed as described above. To test the titration of sporozoite in dose–response format with MMV390048, 20 µL of a 25 sporozoite/μL solution in HepG2 media was added to columns 1–8 of 384-well plates (inoculum of 500 sporozoites/well), 20 μL of 50 sporozoites/μL was added into columns 9–16 (inoculum of 1000 sporozoites/well), and 20 μL of 100 sporozoites/μL was added into columns 17–24 (inoculum of 2000 sporozoites/well). To test legacy anti-malarials, two independent experiments were performed for each endpoint (FLAR or HCI), each with an independent production run of P. berghei sporozoites. […] Infected plates were spun for 5 min at 200 RCF and kept for 3 h at 37 °C and 5% CO2 prior to compound treatment.
as §1
After 44 h, dose–response plates designated for the FLAR endpoint underwent the freeze/thaw lysis method before detection with 1 × FLAR completed with 1 × D-luciferin and ATP endpoint described above. Plates designated for the HCI endpoint were fixed with 4% paraformaldehyde (Thermo Scientific, cat 043368.9 M) in PBS for 20 min. Following fixation, the plate was washed twice by adding and then dumping 20 µL of PBS/well. Plates were then stained with 50 ng/mL of mouse anti-Plasmodium glyceraldehyde 3-phosphate dehydrogenase (GAPDH) (European Malaria Reagent Repository, cat 13.3) diluted in a 0.3% Triton X and 1% BSA permeabilization and blocking stain buffer overnight at 4 °C. Following three washes with PBS, plates were stained with 2 µg/mL of goat anti-mouse AlexaFluor 488 (Invitrogen, cat A11001) diluted in stain buffer and again incubated overnight at 4 °C. Following three washes with PBS, plates were counterstained with 10 µg/mL Hoechst 33342 (Invitrogen, cat H21492) for 30 min before two washes. Plates were imaged on an ImageXpress Micro Confocal high content system (Molecular Devices). Raw values (either parasite growth area for HCI or Relative Light Units (RLU) for FLAR) were normalized to the positive (MMV390048) or negative (DMSO) controls using the equation: %Inhibition=100×RawData-AverageNegativeControl/AveragePositiveControl-AverageNegativeControl and curve fitting was performed with CDD Vault using the Levenberg–Marquardt algorithm. Potency data from all plates were collected, visualized, and analysed using GraphPad Prism (Version 10.0.3). Potency values for legacy anti-malarials obtained from our FLAR endpoint were compared to those previously reported from a 1536-well plate format using a Bright-Glo™ luciferase detection protocol.

| Compound | EC50 [1] [µM] | EC50 [2] [µM] |
| --- | --- | --- |
| COc1cc(Cc2cnc(N)nc2N)cc(OC)c1OC [Trimethoprim] | 1.29 | 1.74 |
| CCN(CC)CCCC(C)Nc1ccnc2cc(Cl)ccc12 (stereo not shown) [Chloroquine] | > 10 | > 10 |
| CCc1nc(N)nc(N)c1-c1ccc(Cl)cc1 [Pyrimethamine] | 0.0339 | 0.0195 |
| Clc1ccc2c(N3CCN(CCCN4CCN(c5ccnc6cc(Cl)ccc56)CC4)CC3)ccnc2c1 [Piperaquine] | > 5.25 | > 5.75 |
| CC[C@H]1OC(=O)[C@H](C)[C@@H](O[C@H]2C[C@@](C)(OC)[C@@H](O)[C@H](C)O2)[C@H](C)[C@@H](O[C@@H]2O[C@H](C)C[C@H](N(C)C)[C@H]2O)[C@](C)(O)C[C@@H](C)CN(C)[C@H](C)[C@@H](O)[C@]1(C)O [Azithromycin] | > 10 | > 10 |
| COc1cc(NC(C)CCCN)c2ncccc2c1 (stereo not shown) [Primaquine] | > 5.37 | > 10 |
| CC(C)(N)CNC(=O)C[C@H]1CC[C@]2(CC1)OO[C@]1(O2)C2CC3CC(C2)CC1C3 [Arterolane (OZ277), Arterolane] | > 10 | > 3.02 |
| c1cc([C@H]2CC[C@]3(CC2)OO[C@]2(O3)C3CC4CC(C3)CC2C4)ccc1OCCN1CCOCC1 [Artefenomel (OZ439), Artefenomel] | > 28.8 | > 1.23 |
| COc1ncnc(NS(=O)(=O)c2ccc(N)cc2)c1OC [Sulfadoxine] | > 10 | > 10 |
| COc1cc(C)c2c(Oc3cccc(C(F)(F)F)c3)c(OC)cc(NC(C)CCCN)c2n1 (stereo not shown) [Tafenoquine] | > 1.58 | > 3.39 |
| CO[C@H]1O[C@@H]2O[C@@]3(C)CC[C@H]4[C@H](C)CC[C@@H]([C@H]1C)[C@@]24OO3 [Artemether] | > 1.07 | > 37.2 |
| C[C@H]1Cc2c([nH]c3cc(Cl)c(F)cc23)[C@@]2(N1)C(=O)Nc1ccc(Cl)cc12 [Cipargamin] | 0.0102 | 0.00955 |
| C[C@H]1[C@H](OC(=O)CCC(=O)O)O[C@@H]2O[C@@]3(C)CC[C@H]4[C@H](C)CC[C@@H]1[C@@]24OO3 [Artesunate] | > 16.6 | > 16.6 |
| CN(C)c1ccc2nc3ccc(=[N+](C)C)cc-3sc2c1 [Methylene Blue] | 0.219 | 0.295 |
| Cc1cc(Nc2ccc(S(F)(F)(F)(F)F)cc2)n2nc(C(C)(F)F)nc2n1 [DSM265] | 0.0166 | 0.0112 |
| CCCCN(CCCC)CC(O)c1cc(Cl)cc2c1-c1ccc(Cl)cc1/C2=C/c1ccc(Cl)cc1 (stereo not shown) [Lumefantrine] | > 5.75 | > 5.75 |
| O=C1C(O)=C([C@H]2CC[C@H](c3ccc(Cl)cc3)CC2)C(=O)c2ccccc21 [Atovaquone] | 0.0214 | 0.017 |
| C[C@@H]1CC[C@H]2[C@@H](C)C(=O)O[C@@H]3O[C@@]4(C)CC[C@@H]1[C@]32OO4 [Artemisinin] | > 50.1 | > 50.1 |
| CS(=O)(=O)c1ccc(-c2cnc(N)c(-c3ccc(C(F)(F)F)nc3)c2)cc1 [MMV390048] | 0.0646 | 0.0631 |
| C[C@H]1[C@@H](O)O[C@@H]2O[C@@]3(C)CC[C@H]4[C@H](C)CC[C@@H]1[C@@]24OO3 [Artenimol (DHA), dihydroartemisinin] | > 10 | > 10 |
